This passage reports % of control, % of inhibition and % binding results from ChEMBL document CHEMBL5465560, “Selectivity Literature for EUbOPEN Chemogenomic Library” (2024).

Assay [1] concerns the target Proto-oncogene tyrosine-protein kinase ROS (Homo sapiens) (UniProt P08922). In words: Selectivity interaction (KinomeScan (DiscoverX)) EUB0000695a ROS1. Conditions: at 100 nM.
The target in assay [2] is T1, Ephrin type-B receptor 3 (Homo sapiens) (UniProt P54753).
T1 sequence (whole entry): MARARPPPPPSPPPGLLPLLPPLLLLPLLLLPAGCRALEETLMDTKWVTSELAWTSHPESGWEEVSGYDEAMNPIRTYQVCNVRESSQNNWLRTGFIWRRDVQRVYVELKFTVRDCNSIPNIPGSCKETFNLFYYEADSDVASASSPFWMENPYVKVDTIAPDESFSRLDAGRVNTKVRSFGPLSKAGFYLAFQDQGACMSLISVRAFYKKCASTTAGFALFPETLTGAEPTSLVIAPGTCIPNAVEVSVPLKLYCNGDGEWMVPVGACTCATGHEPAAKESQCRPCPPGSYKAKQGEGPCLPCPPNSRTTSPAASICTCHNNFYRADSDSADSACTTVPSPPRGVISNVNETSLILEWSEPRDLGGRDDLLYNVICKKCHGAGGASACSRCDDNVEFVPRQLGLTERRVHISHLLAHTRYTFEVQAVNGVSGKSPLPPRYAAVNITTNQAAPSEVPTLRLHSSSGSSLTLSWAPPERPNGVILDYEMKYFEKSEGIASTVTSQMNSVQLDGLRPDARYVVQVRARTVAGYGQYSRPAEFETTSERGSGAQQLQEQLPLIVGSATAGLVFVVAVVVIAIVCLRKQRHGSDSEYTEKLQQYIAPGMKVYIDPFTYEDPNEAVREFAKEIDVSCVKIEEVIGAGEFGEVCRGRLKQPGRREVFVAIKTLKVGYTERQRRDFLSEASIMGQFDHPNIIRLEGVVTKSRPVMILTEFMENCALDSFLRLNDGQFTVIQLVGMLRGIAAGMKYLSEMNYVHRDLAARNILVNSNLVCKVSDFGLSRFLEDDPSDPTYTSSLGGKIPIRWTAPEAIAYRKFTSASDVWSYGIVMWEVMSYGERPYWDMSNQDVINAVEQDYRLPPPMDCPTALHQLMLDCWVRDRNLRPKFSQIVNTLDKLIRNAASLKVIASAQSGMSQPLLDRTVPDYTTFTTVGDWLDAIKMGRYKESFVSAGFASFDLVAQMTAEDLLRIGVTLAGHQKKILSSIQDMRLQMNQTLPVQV
The note with it: at 10 µM.

Assay [3] addresses T2, Cyclin-dependent kinase 11A (Homo sapiens) (UniProt Q9UQ88).
T2 sequence (whole entry): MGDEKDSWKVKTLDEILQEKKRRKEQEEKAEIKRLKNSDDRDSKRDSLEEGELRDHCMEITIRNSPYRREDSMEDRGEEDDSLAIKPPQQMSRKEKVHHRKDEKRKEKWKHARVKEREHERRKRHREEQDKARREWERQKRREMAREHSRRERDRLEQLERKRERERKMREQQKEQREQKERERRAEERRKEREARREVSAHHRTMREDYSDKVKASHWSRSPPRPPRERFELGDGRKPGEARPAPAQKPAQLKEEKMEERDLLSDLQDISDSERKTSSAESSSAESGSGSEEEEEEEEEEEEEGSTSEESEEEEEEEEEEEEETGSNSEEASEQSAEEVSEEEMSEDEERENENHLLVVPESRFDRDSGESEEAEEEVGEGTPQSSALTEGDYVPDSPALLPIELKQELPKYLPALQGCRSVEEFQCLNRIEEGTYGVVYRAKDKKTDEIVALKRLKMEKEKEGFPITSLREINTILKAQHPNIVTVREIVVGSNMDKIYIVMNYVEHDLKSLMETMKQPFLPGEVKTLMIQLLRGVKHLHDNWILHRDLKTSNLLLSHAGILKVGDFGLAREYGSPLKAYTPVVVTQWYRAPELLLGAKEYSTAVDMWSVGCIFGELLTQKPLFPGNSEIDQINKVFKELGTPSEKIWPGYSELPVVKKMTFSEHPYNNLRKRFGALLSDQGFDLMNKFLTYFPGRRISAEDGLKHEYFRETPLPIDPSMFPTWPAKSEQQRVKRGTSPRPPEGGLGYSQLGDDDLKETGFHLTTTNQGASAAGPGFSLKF
The experiment in a line: Selectivity interaction (ActivX KiNativ screen (kinase selectivity in THP-1 cell lysates)) EUB0000639a CDK11A. In kind it is subcellular. The note with it: lysate, at 0.01 µM.

Assay [4] concerns the target Receptor-interacting serine/threonine-protein kinase 2 (Homo sapiens, UniProt O43353). The experiment in a line: Selectivity interaction (KinomeScan (DiscoverX)) EUB0001049a RIPK2. The note with it: at 1 µM.
Assay [5] deals with T3, Bone morphogenetic protein receptor type-2 (Homo sapiens) (UniProt Q13873).
T3 sequence (whole entry): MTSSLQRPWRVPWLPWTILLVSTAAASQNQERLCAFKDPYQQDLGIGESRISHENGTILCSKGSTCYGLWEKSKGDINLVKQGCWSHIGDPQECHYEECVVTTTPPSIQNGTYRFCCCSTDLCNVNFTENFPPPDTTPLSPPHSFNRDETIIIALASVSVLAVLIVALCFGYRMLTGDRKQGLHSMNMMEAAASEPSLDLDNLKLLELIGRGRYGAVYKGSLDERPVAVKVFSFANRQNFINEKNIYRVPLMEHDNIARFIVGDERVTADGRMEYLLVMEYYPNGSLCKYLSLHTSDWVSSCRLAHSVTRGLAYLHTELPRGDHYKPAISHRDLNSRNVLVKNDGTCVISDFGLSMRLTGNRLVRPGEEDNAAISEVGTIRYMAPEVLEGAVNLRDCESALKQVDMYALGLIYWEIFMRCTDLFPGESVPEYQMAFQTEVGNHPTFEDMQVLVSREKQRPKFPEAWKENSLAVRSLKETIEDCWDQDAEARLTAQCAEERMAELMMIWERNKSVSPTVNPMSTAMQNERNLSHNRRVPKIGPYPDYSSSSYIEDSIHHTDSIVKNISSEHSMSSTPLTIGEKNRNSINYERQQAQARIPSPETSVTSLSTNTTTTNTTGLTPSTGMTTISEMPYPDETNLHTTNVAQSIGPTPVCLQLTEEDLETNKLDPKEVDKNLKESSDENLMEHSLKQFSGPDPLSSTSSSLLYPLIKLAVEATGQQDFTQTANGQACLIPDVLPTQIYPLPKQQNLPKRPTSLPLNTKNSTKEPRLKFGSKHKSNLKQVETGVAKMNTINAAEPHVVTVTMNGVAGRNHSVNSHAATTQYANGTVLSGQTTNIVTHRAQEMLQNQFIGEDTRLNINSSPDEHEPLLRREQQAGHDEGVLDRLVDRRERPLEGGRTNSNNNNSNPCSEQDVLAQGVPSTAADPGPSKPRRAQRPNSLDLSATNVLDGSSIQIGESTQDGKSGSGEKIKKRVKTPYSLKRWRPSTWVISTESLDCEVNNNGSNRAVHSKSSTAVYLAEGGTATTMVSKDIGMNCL
The experiment in a line: Selectivity interaction (KinomeScan (DiscoverX)) EUB0000618a BMPR2. The note with it: at 10 µM.

The target in assay [6] is Macrophage-stimulating protein receptor (Homo sapiens, UniProt Q04912). In words: Selectivity interaction (KinomeScan (DiscoverX)) EUB0000229b MST1R. Conditions: at 10 µM.
Chain of Macrophage-stimulating protein receptor (Q04912 25-304 limits assumed): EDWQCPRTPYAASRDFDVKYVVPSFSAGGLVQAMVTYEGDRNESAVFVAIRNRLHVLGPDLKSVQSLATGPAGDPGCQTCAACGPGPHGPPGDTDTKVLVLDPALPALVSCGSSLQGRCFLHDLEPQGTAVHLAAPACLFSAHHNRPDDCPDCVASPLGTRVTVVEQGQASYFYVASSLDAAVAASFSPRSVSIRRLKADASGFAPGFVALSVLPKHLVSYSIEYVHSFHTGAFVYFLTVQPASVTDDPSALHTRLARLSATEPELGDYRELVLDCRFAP
Chain of Macrophage-stimulating protein receptor (Q04912 310-1400 limits assumed): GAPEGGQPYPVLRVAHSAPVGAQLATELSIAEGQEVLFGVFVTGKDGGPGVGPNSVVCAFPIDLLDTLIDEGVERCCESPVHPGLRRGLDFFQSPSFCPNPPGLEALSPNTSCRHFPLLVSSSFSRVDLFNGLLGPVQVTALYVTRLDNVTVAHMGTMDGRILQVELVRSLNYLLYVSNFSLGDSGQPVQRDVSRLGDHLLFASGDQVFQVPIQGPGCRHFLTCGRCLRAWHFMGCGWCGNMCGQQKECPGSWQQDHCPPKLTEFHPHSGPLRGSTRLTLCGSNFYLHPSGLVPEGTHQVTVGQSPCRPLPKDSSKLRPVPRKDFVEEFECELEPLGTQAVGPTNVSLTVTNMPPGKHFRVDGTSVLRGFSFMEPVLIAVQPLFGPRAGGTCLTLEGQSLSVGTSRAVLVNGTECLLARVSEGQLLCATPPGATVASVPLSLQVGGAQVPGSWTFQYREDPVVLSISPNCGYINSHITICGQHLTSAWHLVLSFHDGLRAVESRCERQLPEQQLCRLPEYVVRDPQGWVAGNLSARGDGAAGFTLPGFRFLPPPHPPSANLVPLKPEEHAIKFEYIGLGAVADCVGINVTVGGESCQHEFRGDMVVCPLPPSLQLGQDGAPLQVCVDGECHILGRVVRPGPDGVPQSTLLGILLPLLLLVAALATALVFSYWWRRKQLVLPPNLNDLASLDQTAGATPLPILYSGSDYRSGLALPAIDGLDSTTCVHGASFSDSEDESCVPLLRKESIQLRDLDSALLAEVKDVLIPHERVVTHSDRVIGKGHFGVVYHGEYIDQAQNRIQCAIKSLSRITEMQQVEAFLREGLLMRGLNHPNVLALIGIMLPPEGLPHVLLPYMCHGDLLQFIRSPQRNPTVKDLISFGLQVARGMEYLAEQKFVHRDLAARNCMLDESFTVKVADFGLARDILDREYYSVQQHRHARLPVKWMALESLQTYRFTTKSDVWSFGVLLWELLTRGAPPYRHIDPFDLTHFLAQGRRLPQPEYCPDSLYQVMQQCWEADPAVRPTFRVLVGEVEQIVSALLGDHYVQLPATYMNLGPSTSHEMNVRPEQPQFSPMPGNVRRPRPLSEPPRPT

Chain of Proto-oncogene tyrosine-protein kinase ROS (Homo sapiens) (P08922 whole entry): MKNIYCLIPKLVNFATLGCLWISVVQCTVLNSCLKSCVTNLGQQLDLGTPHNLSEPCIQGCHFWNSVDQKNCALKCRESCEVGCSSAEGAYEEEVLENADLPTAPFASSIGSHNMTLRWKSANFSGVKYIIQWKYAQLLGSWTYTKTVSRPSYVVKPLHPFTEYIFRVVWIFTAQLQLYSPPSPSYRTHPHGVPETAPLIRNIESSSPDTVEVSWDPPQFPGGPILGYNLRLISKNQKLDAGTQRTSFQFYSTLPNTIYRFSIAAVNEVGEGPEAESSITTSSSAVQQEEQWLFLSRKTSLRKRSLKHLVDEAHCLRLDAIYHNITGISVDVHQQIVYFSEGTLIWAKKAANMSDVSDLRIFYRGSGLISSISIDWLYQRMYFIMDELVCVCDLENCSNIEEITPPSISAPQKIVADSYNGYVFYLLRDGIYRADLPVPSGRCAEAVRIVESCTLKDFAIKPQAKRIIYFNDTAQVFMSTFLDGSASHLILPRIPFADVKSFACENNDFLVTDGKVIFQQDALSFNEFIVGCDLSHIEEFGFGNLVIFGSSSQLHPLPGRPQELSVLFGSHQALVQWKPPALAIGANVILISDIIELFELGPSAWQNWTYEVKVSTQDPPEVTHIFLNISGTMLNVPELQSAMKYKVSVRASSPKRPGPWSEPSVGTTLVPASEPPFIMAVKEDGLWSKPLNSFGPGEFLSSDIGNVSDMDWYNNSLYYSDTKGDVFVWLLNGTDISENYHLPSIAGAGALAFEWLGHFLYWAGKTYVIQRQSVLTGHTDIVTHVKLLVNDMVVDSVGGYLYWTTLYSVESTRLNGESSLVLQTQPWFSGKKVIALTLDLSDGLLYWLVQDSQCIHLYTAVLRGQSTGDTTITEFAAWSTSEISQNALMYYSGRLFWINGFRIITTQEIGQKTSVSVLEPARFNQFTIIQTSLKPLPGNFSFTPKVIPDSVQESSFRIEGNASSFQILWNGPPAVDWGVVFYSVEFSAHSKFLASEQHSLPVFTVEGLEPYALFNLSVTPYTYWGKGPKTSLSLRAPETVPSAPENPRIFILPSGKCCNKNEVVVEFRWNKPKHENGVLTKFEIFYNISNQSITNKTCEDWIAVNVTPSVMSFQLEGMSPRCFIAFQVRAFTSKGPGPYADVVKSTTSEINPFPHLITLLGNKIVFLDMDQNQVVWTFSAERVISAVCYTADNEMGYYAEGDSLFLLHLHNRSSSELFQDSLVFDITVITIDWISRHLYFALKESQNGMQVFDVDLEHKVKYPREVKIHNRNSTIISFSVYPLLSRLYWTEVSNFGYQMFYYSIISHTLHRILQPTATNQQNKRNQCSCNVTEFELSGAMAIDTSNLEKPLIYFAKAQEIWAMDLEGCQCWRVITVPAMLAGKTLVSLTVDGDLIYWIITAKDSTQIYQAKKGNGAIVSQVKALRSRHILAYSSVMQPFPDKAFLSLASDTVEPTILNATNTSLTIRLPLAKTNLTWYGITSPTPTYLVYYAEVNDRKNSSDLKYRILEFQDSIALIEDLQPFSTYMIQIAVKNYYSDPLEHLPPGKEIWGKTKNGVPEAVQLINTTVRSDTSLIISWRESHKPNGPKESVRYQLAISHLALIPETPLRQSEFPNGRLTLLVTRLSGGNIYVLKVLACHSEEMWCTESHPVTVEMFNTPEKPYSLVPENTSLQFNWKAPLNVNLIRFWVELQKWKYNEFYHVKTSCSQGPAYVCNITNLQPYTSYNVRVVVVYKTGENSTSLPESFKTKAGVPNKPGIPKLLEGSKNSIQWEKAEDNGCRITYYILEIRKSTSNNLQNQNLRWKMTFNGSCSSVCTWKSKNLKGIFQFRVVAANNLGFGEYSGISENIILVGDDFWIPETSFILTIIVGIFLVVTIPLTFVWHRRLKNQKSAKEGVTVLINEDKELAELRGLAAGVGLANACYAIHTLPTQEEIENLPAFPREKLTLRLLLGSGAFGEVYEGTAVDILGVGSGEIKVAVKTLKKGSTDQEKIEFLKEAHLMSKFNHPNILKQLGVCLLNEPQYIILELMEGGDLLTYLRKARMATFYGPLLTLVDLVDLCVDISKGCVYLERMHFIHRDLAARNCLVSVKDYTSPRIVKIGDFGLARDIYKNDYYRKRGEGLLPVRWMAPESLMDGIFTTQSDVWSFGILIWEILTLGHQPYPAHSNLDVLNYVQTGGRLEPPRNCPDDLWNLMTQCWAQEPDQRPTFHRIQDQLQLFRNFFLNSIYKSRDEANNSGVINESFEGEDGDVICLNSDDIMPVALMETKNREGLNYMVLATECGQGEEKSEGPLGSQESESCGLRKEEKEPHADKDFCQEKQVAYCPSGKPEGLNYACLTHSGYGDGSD
Chain of Receptor-interacting serine/threonine-protein kinase 2 (O43353 whole entry): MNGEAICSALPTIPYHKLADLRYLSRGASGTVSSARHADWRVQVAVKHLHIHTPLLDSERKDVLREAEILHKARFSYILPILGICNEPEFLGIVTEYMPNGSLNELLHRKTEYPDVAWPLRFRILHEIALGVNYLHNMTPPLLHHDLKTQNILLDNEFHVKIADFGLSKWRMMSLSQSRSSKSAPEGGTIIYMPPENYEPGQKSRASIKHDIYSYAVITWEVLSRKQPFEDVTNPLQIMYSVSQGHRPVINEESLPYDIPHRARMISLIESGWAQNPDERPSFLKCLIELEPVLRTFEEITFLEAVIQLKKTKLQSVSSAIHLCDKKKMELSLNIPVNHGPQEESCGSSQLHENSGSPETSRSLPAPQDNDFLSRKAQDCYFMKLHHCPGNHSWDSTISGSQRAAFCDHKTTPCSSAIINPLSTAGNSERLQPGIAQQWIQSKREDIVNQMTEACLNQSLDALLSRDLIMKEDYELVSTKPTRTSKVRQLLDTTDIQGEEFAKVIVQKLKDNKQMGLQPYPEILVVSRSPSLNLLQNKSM

In the case of `Cc1cc(F)c(C(=O)Nc2cccc(-c3nncn3C(C)C)n2)cc1-n1cnc(C2CC2)c1`, the % of control in assay [1] stood at 79%.

In the case of `Cc1cc([C@@H](C)Nc2ccccc2C(=O)O)c2nc(N3CCOCC3)cc(=O)n2c1` [AZD-6482], in assay [2], the % of control was determined as 100%.

`CC[C@@H]1[C@H](F)C(=O)N[C@@H]1COc1nccc2cc(C(N)=O)c(OC)cc12` [ZIMLOVISERTIB]: in assay [3], the % of inhibition worked out at 11.4%.

The compound `COc1cc(Nc2nc(C)cc(-c3cnn4nc(OC)ccc34)n2)cc(C(F)(F)F)c1` had a % of control in assay [4] of 100%.

Consider `O[C@H]1CC[C@H](Nc2ncc3nc(Nc4c(F)cc(F)cc4F)n([C@H]4CCOC4)c3n2)CC1`, for which the % of control in assay [5] came out at 78%.

In assay [6], `COc1cc(N(C)c2ccnc3ccc(C(F)(F)F)cc23)cc(OC)c1OC` registered a % binding of 82%.
